# Data taken from patent US20240002388A1, “PYRIMIDINONE COMPOUNDS AND USES THEREOF” (HUTCHISON MEDIPHARMA LIMITED, priority 2020, published 2024).
# Columns and labels:
# [1] = system: U937 cell line (human histiocytic lymphoma cell line); experiment: U937 cell viability assay (TNF-α + Z-VAD-FMK induced necroptosis); format: cell-based; details: Homo sapiens, U-937; U937 cells, hTNF-α 0.1 μg/mL + Z-VAD-FMK 50 μM, 20 hours, CellTiter-Glo
# Method: U937 cell line (human histiocytic lymphoma cell line): purchased from ATCC (American Type Culture Collection) Cell Bank, cultured in a 5% CO2, 37° C. incubator, and RPMI 1640 medium which contains L-glutamine, 1.5 g/L sodium bicarbonate, 2.383 g/L HEPES solution, 0.11 g/L sodium pyruvate and 4.5 g/L glucose, plus 10% fetal bovine serum (FBS) was used. • RPMI 1640 medium: GIBCO, Cat #A10491-01; • Fetal bovine serum (FBS): GIBCO, Cat #10099-141C; • Dimethyl sulfoxide (DMSO): Sigma, Cat #D2650; • Recombinant Human TNF-alpha Protein (hTNF-α): R&D system, Cat #210-TA-100; • Pan-Caspase inhibitor (Z-VAD-FMK): Selleckchem, Cat #S7023; • CellTiter-Glo 2.0 Cell Viability Assay kit: Promega, Cat #G9242; • Microwell plate reader: Envision, Perkin Elmer; • 96-well plate: Corning, Cat #3917.
# The U937 cells at the logarithmic phase were taken out, centrifuged to remove the medium, washed with PRMI 1640 medium containing 1% FBS, and diluted with 1% FBS-containing RPMI 1640 medium to 2.5×10^5 cells/ml, inoculated at 70 μL/well into a 96-well plate, i.e., 1.75×10^4 cells/well. The plate was cultured in a 5% CO2, 37° C. cell incubator. After incubating for 1 hour, the test compound was diluted to the corresponding concentrations using DMSO with 3-fold serial dilution, then the corresponding concentration of DMSO diluted solution was diluted into 1% FBS-containing RPMI 1640 medium, and 10 μL/well of the diluted test compound with different concentrations (final concentration of test compound was 1.0, 0.333, 0.111, 0.037, 0.012, 0.004, 0.0014 and 0.0005 μM, while final concentration of DMSO was 0.3%) or 10 μL/well control solution (3% DMSO) were added to the cell culture system respectively, with the total volume being 80 μL/well; Then 10 μL of Z-VAD-FMK solution diluted with 1% FBS-containing RPMI 1640 medium (final concentration of 50 μM) or 10 μL of control solution (2.5% DMSO) was added to each well, with the total volume being 90 μL/well. The plate was incubated in a 5% CO2, 37° C. cell culture incubator for 1 hour.
# (§1) After being cultured for 1 hour, 10 μL of human recombinant TNF-α protein diluted with 1% FBS-containing RPMI 1640 medium (final concentration of 0.1 μg/mL) or 10 μL/well control solution (1% FBS-containing RPMI 1640 medium) was added to each well. The plate was incubated in a 5% CO2, 37° C. cell culture incubator for 20 hours.
# (§2) The cell culture plate was taken out from the incubator, and left to stand at room temperature for 30 minutes. Meanwhile, CellTiter-Glo viability assay kit was put from freezer to room temperature, and 50 μL of CellTiter-Glo reagent was added to all wells, the plate was shaken for 1 minutes, protected from light at room temperature for 10 minutes then read the plate on Envision to get the luminescence signal.
# (§3) The 96-well plate in the dark was taken out, and the chemiluminescence was determined using the Envision microwell plate reader as the signal value of each well.
# (§4) The mean signal value of the wells of the mixed solution of recombinant human TNF-alpha protein (final concentration of 0.1 μg/mL) and Pan-Caspase inhibitor (final concentration of 50 μM) was used as the lower value, and the mean signal value of the wells without stimulation was used as the upper value. According to the signal value of each well, the inhibition rate of each concentration of every compound was calculated, and the IC50 value of compound was obtained by Model 205 in XL-Fit 5.3 software (ID Business Solutions Limited).
# (§5) Inhibition rate %=[(Luminescence readout of treated compound−Luminescence readout of positive control)/(Luminescence readout of negative control−Luminescence readout of positive control)]×100%, wherein
# [2] = system: L929 cell line (mouse fibroblastoma cell line); experiment: L929 cell viability assay (mTNF-α + Z-VAD-FMK induced necroptosis); format: cell-based; details: Mus musculus, L929, 20 h, L929 cells, mTNF-α 0.1 μg/mL + Z-VAD-FMK 5 μM, CellTiter-Glo
# Method: L929 cell line (mouse fibroblastoma cell line): purchased from ATCC (American Type Culture Collection) Cell Bank, cultured in 5% CO2, 37° C. incubator, and MEM medium which contains L-Glutamine, with 10% FBS was used. • MEM medium: GIBCO, Cat #11095080; • Fetal bovine serum (FBS): GIBCO, Cat #10099-141C; • Dimethyl sulfoxide (DMSO): Sigma, Cat #D2650; • 0.25% Trypsin-EDTA: GIBCO, Cat #25200072; • Recombinant Mouse TNF-alpha Protein (mTNF-α): R&D system, Cat #410-MT-050; • Pan-Caspase inhibitor (Z-VAD-FMK): Selleckchem, Cat #S7023; • CellTiter-Glo 2.0 Cell Viability Assay kit: Promega, Cat #G9242; • Microwell plate reader: Envision, Perkin Elmer; • 96-well plate: Corning, Cat #3917.
# The L929 cells at the logarithmic phase were taken out, and the supernatant was discarded. After trypsinization and cell shedding, 10% FBS-containing medium was added for neutralization, and the supernatant was discarded after centrifugation. The cells were re-suspended using 10% FBS-containing medium, adjusted to 7×10^4 cells/ml, added to 96-well microplate at 70 μL/well, i.e., 4.9×10^3 cells/well. Then the plate was incubated in a 5% CO2, 37° C. cell incubator overnight.
# After incubating overnight, the 96-well plate was taken out, the medium was discarded, and the plate was washed with 1% FBS-containing MEM medium. Then 1% FBS-containing MEM medium was added at 70 μL/well, and the plate was cultured in a 5% CO2, 37° C. cell incubator. After incubating for 1 hour, the test compound was diluted to the corresponding concentrations using DMSO with 3-fold serial dilution, then the corresponding concentration of DMSO diluted solution was diluted into 1% FBS-containing MEM medium, and 10 μL/well of the diluted test compound with different concentrations (final concentrations of test compound were 10, 3.33, 1.11, 0.37, 0.12, 0.04, 0.014 and 0.005 μM, while final concentration of DMSO was 0.3%) or 10 μL/well control solution (3% DMSO) were added to the cell culture system respectively, with the total volume being 80 μL/well. Then 10 μL of Z-VAD-FMK solution diluted with 1% FBS-containing MEM medium (final concentration of 5 μM) or 10 μL of control solution (2.5% DMSO) was added to each well, with the total volume being 90 μL/well. The plate was incubated in a 5% CO2, 37° C. cell culture incubator for 1 hour.
# as §1, with “incubating” for “being cultured”, “of” for “of human”, “recombinant mouse” for “recombinant”, “protein solution” for “protein”, “MEM” for “RPMI 1640”, “μL” for “μL/well”
# as §2, §3
# as §4, with “recombinant mouse” for “recombinant human”, “of 5” for “of 50”
# as §5
smiles,measurement,setting,value
CC(C)n1cncc(-c2ccc(C3(NC(=O)c4nnc(Cc5ccccc5)[nH]4)CC3)cc2)c1=O [Compound 14],IC50,[1],3 nM
same,IC50,[2],181 nM
